In patent publication US12721537B2, “System and method for measuring blood flow velocity on a microfluidic chip” (CASE WESTERN RESERVE UNIVERSITY, priority 2020, dated 2026):

How the values were obtained:
whole blood = conditions: sodium citrate whole blood recalcified to 100 mM CaCl2, constant inlet pressure 20 mBar, PIV
Description: The whole blood sample for this example was drawn into a 3.2% sodium citrate containing vacutainer from a single healthy donor under an Institutional review board-approved protocol. The blood sample was stored at 4° C. upon collection and was processed within 24 h. […] Prior to the experiment, the whole blood sample was recalcified with the stock solution to obtain a final concentration of 100 mM CaCl2. […] The control experiment was performed by mixing the whole blood sample with PBS. Thereafter, the mixed blood sample was immediately injected into the microfluidic channel at a constant inlet pressure of 20 mBar by means of a Flow-EZ pressure control unit (Fluigent Inc., North Chelmsford, MA), as shown in FIG. 2. The constant supply pressure implies that the flow rate is reduced as the blood coagulates. The maximum initial shear rate was approximately 10 s^−1, and the shear rate reduced to zero as the flow slowed and eventually stopped due to microchannel blockage as coagulation occurred. The microfluidic channel was placed on an inverted microscope (Olympus IX83), and a video was recorded simultaneously under 4× magnification using a high-resolution camera (EXi Blue EXI-BLU-R-F-M-14-C) at 10 frames per second as soon as the flow was started. The field of view was centered on the microfluidic channel, and one pixel in the images corresponds to 1.58 μm. […]

citrate whole blood = assay: Thrombin-induced thrombus formation in a microchannel; format: cell-based; conditions: citrate whole blood reconstituted with 16.7 μM calcium chloride only
Description: The influence of clotting disorders and therapies can be assessed in a case study using elevated levels of thrombin to promote coagulation. […] It is hypothesized that elevated levels of thrombin will produce distinctive, quantifiable effects on the evolution of the blood flow and the associated formation and growth of thrombi, and these experiments will allow us to assess the ability of our model to identify those effects. Additionally, the effect of heparin, a common anticoagulant therapy, on the blood flow will be evaluated by adding heparin into the blood samples at appropriate doses.

Compound: [Ca+2].[Cl-].[Cl-] [CaCl2, calcium chloride]
- clotting time (dramatic drop in mean blood flow velocity) (whole blood): ~220 s
- blood flow in microchannel (citrate whole blood): flows uniformly
- thrombus formation in microchannel (citrate whole blood): No thrombus formation
